Test results published in publication PMC3501516, “Anti-Diabetic Efficacy and Impact on Amino Acid Metabolism of GRA1, a Novel Small-Molecule Glucagon Receptor Antagonist” (PLoS ONE, 2012).

Key:
[1] = biological target: T1, GIPR (glucose-dependent insulinotropic peptide receptor) (Homo sapiens, UniProt P48546); experiment: Inhibition of GIP-stimulated cAMP production in CHO cells expressing GIPR; format: cell-based
T1 sequence (P48546 22-466): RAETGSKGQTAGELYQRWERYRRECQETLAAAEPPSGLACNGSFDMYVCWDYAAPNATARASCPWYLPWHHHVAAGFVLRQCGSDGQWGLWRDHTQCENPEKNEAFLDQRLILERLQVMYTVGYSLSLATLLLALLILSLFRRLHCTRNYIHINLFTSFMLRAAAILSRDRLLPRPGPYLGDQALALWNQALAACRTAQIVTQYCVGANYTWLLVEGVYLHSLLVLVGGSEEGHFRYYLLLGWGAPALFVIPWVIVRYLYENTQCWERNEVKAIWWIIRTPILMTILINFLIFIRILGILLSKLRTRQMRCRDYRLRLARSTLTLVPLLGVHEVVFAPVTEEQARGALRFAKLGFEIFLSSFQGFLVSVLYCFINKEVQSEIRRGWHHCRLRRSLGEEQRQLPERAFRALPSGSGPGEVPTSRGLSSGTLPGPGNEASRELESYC
Protocol: Transfected Chinese hamster ovary (CHO) cell lines were acquired and maintained as previously described [17], [20]. These included separate cell lines stably expressing human GCGR (hGCGR), mouse GCGR, rhesus GGCR, glucose-dependent insulinotropic peptide receptor (GIPR), GLP-1 receptor (GLP-1R), pituitary adenylate cyclase-activating polypeptide receptor type 1 (PAC1R), and vasoactive adenylate cyclase-activating polypeptide receptor type 2 (VPAC2R). […] Functional antagonism was assayed by measuring the production of cAMP in intact CHO cells stimulated by agonists specific for their cognate receptors (i.e., glucagon for GCGR-expressing cell lines, GIP for the GIPR-expressing line, etc.).

hGCGR mouse = experiment: Blunting of glucagon-induced blood glucose excursion in hGCGR mouse; format: in vivo; details: vehicle 1393±179
Protocol: In mouse studies of glucagon-induced excursions in blood glucose, animals were dosed orally with vehicle (10 mL/kg 0.5% aqueous methylcellulose) or GRA1 one hour prior to challenge by intraperitoneal injection of 15 µg/kg glucagon (Eli Lilly, Indianapolis, IN) or vehicle, [20]. In the studies in monkey, GRA1 or vehicle was administered to chair-restrained animals via a nasogastric tube 4 h prior to intramuscular injection of 15 µg/kg glucagon. Blood glucose measurements were made using a OneTouch glucometer (Lifescan, Milpitas, CA).
Figure 3 Blunting of glucagon-induced blood glucose excursions by GRA1 treatment in the (A) hGCGR mouse and (B) rhesus monkey. In (A), mice (n = 8) were administered vehicle or 3, 10 or 30 mg/kg GRA1, then challenged 1 h later (time 0) by intraperitoneal injection of 15 µg/kg glucagon or vehicle. Pharmacokinetic analysis determined that these animals had mean plasma GRA1 concentrations of 0.4, 0.9, and 4.7 µM, respectively, at 1 h postdose. In (B), monkeys (n = 4) were administered 1 mg/kg GRA1 4 h prior to intramuscular injection of 15 µg/kg glucagon or vehicle. At 1 h postdose, the mean plasma GRA1 concentration in these animals was 0.2 µM. *p<0.05; **p<0.01; and ***p<0.001 vs. glucagon-treated control animals.

rhesus monkey liver = experiment: Hepatic gene expression (Affymetrix microarray of liver biopsies) in rhesus monkeys; format: in vivo; details: 30 mg/kg twice daily
Protocol: Hepatic gene expression was assessed by liver biopsy in adult rhesus monkeys that had been treated twice daily for 1 and 6 days with 30 mg/kg GRA1 or vehicle. The compound was administered to the animals orally in yogurt or a similar treat while they were housed in their home cages. The animals were fasted for approximately 16 h prior to performing liver biopsies laparoscopically, under anesthesia. On biopsy days, animals received their morning doses of GRA1 2 h before the biopsies were performed.
Total RNA was processed for Affymetrix microarray analysis as previously described. Briefly, total RNA was isolated from frozen tissues after homogenizing in TRIzol reagent (Invitrogen, Carlsbad, CA) and processed using RNeasy kits (QIAGEN, Valencia, CA) according to manufacturers' instructions. Sample amplification, labeling, and microarray processing were performed by the Covance Genomics Laboratory in Seattle, WA using the Affymetrix catalog Rhesus array (Affymetrix, Santa Clara, CA). One-way ANOVA analyses were performed with Matlab (The Mathworks, Natick, MA). Probesets had to pass a pre-filter of Affymetrix MAS5 present call p value <0.05 in >50% of the samples to qualify for further analysis. Differentially expressed genes (probesets) were selected with 1.2-fold change and ANOVA p value <0.05.

## COc1ccc2cc(-c3cc(-c4cc(C(F)(F)F)ccc4F)nn3[C@@H](C)c3ccc(C(=O)NCCC(=O)O)cc3)ccc2c1 [GRA1, N-[4-((1S)-1-{3-(2-fluoro-5-trifluoromethylphenyl)-5-[6-methoxynaphth-2-yl]-1H-pyrazol-1-yl}ethyl)benzoyl]-β-alanine]
[1]
  IC50: 933 nM
hGCGR mouse; 3 mg/kg p.o. 1 h before 15 µg/kg glucagion i.p.
  Baseline-subtracted mean AUC0–50 of glucagon-stimulated blood glucose excursion: 812 ± 122 mg·min/dL
hGCGR mouse; 10 mg/kg p.o. 1 h before 15 µg/kg glucagon i.p.
  Baseline-subtracted mean AUC0–50 of glucagon-stimulated blood glucose excursion: 543 ± 68 mg·min/dL
hGCGR mouse; 30 mg/kg p.o. 1 h before 15 µg/kg glucagon i.p.
  Baseline-subtracted mean AUC0–50 of glucagon-stimulated blood glucose excursion: 476 ± 64 mg·min/dL
Rhesus monkey liver; Day 1
  AASS (aminoadipate-semialdehyde synthase) hepatic expression, fold difference vs vehicle: −2.0 fold
  AGXT2L1 hepatic expression, fold difference vs vehicle: −1.5 fold
  ASL (argininosuccinate lyase) hepatic expression, fold difference vs vehicle: −1.5 fold
  BCKDHB hepatic expression, fold difference vs vehicle: −1.4 fold
  DDC (dopa decarboxylase) hepatic expression, fold difference vs vehicle: −1.4 fold
  FH (fumarate hydratase) hepatic expression, fold difference vs vehicle: −1.2 fold
  GCKR (glucokinase regulator) hepatic expression, fold difference vs vehicle: 1.5 fold
  GPT (alanine aminotransferase) hepatic expression, fold difference vs vehicle: −1.5 fold
  HPD (4-hydroxyphenylpyruvate dioxygenase) hepatic expression, fold difference vs vehicle: −1.3 fold
  KMO (kynurenine 3-monooxygenase) hepatic expression, fold difference vs vehicle: −1.3 fold
  OAT (ornithine aminotransferase) hepatic expression, fold difference vs vehicle: −1.9 fold
  SDS (serine dehydratase) hepatic expression, fold difference vs vehicle: −8.8 fold
  SDSL (serine dehydratase-like) hepatic expression, fold difference vs vehicle: −1.6 fold
  SLC7A2 hepatic expression, fold difference vs vehicle: −1.8 fold
  TAT (tyrosine aminotransferase) hepatic expression, fold difference vs vehicle: −1.8 fold
Rhesus monkey liver; Day 1 (ns)
  ARG1 (arginase, liver) hepatic expression, fold difference vs vehicle: −1.1 fold
  GCK (glucokinase) hepatic expression, fold difference vs vehicle: 2.4 fold
  GLS2 (glutaminase 2) hepatic expression, fold difference vs vehicle: −1.3 fold
  GOT1 hepatic expression, fold difference vs vehicle: −1.5 fold
  PAH (phenylalanine hydroxylase) hepatic expression, fold difference vs vehicle: −1.5 fold
  SLC1A2 hepatic expression, fold difference vs vehicle: −1.6 fold
Rhesus monkey liver; Day 6
  AASS (aminoadipate-semialdehyde synthase) hepatic expression, fold difference vs vehicle: −3.0 fold
  AGXT2L1 hepatic expression, fold difference vs vehicle: −1.8 fold
  ARG1 (arginase, liver) hepatic expression, fold difference vs vehicle: −1.3 fold
  ASL (argininosuccinate lyase) hepatic expression, fold difference vs vehicle: −1.6 fold
  BCKDHB hepatic expression, fold difference vs vehicle: −1.3 fold
  FH (fumarate hydratase) hepatic expression, fold difference vs vehicle: −1.2 fold
  GCK (glucokinase) hepatic expression, fold difference vs vehicle: 5.4 fold
  GCKR (glucokinase regulator) hepatic expression, fold difference vs vehicle: 1.3 fold
  GLS2 (glutaminase 2) hepatic expression, fold difference vs vehicle: −1.6 fold
  GOT1 hepatic expression, fold difference vs vehicle: −2.1 fold
  GPT (alanine aminotransferase) hepatic expression, fold difference vs vehicle: −1.3 fold
  HPD (4-hydroxyphenylpyruvate dioxygenase) hepatic expression, fold difference vs vehicle: −1.2 fold
  KMO (kynurenine 3-monooxygenase) hepatic expression, fold difference vs vehicle: −1.5 fold
  OAT (ornithine aminotransferase) hepatic expression, fold difference vs vehicle: −3.6 fold
  PAH (phenylalanine hydroxylase) hepatic expression, fold difference vs vehicle: −2.1 fold
  SDS (serine dehydratase) hepatic expression, fold difference vs vehicle: −27.1 fold
  SLC1A2 hepatic expression, fold difference vs vehicle: −7.6 fold
  SLC7A2 hepatic expression, fold difference vs vehicle: −2.4 fold
Rhesus monkey liver; Day 6 (ns)
  DDC (dopa decarboxylase) hepatic expression, fold difference vs vehicle: −1.1 fold
  SDSL (serine dehydratase-like) hepatic expression, fold difference vs vehicle: −1.5 fold
  TAT (tyrosine aminotransferase) hepatic expression, fold difference vs vehicle: −1.7 fold
